ChEMBL document CHEMBL1201862, “PubChem BioAssay data set” (2004)
The source made the active and inactive calls.

Assays:
Type in all cases: functional
[1] = molecular target: T1, Serine/threonine-protein kinase TAO1 (Homo sapiens, UniProt Q7L7X3)
T1 sequence (Q7L7X3 whole entry): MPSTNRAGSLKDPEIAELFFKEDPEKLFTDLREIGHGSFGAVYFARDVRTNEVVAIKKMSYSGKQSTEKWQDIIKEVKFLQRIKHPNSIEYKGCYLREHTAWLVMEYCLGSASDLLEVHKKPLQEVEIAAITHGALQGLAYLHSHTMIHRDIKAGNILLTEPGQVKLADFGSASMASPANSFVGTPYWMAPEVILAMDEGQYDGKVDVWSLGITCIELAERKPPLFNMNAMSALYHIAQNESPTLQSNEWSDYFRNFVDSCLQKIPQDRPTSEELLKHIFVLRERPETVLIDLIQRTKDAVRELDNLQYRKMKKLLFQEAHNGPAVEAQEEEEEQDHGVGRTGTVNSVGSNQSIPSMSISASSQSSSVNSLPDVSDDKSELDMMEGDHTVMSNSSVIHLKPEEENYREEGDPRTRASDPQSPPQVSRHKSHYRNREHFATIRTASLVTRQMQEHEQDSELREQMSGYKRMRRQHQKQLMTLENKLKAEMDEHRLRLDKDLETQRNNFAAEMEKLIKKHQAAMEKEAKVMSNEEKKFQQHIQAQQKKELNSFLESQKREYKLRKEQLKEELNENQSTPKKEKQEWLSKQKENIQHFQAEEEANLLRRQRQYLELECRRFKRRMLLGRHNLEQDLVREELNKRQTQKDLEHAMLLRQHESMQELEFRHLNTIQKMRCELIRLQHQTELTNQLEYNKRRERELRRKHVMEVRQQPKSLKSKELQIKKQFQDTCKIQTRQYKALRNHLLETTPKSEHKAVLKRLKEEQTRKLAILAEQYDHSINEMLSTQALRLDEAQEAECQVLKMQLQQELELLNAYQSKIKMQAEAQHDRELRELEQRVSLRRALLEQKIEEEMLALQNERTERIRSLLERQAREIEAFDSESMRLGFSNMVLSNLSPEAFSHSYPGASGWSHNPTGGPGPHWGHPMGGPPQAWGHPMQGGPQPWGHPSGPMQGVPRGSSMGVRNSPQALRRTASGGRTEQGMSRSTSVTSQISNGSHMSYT

SRSF protein kinase 1 = SRSF protein kinase 1 (Homo sapiens, UniProt Q96SB4);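 further: measured as one member of a kinome-wide kinase profiling panel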
[2] = molecular target: T2, Tyrosine-protein kinase receptor TYRO3 (Homo sapiens, UniProt Q06418);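 further: TYRO3 value obtained as one member of a kinome-wide profiling panel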
T2 sequence (Q06418 whole entry): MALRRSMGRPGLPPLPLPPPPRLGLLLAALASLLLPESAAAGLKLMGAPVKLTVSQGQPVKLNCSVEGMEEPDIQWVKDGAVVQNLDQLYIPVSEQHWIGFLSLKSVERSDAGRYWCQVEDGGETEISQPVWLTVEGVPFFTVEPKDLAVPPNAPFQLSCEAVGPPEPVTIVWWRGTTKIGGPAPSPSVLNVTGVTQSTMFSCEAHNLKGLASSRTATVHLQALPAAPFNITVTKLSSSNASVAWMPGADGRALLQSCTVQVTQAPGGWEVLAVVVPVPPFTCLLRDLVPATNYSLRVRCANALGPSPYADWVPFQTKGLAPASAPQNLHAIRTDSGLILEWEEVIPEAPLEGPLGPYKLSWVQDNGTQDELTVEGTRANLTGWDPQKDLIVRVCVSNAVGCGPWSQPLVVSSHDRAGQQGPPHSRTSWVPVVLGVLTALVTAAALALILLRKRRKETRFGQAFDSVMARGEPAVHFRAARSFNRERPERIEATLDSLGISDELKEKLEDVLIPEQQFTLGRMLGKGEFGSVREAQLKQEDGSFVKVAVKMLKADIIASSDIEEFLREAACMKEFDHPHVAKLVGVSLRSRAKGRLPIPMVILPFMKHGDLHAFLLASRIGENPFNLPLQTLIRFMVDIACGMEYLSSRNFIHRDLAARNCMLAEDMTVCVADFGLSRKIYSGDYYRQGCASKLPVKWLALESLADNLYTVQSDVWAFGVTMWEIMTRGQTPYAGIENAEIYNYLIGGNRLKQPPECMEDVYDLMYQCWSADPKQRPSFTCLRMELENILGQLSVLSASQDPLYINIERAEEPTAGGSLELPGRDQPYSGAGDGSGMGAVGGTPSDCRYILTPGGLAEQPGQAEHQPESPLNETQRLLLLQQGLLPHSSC

[3] = molecular target: Tyrosine-protein kinase JAK2 (Homo sapiens, UniProt O60674);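 further: JAK2 tested as one member of a kinase panel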
[4] = molecular target: Dual specificity tyrosine-phosphorylation-regulated kinase 1A (Homo sapiens, UniProt Q13627);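 further: measured against DYRK1A as one member of a broad kinome profiling panel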
[5] = molecular target: T3, Serine/threonine-protein kinase D3 (Homo sapiens, UniProt O94806);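 further: determined within a kinase panel screen, with PRKCN as the panel member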
T3 sequence (O94806 whole entry): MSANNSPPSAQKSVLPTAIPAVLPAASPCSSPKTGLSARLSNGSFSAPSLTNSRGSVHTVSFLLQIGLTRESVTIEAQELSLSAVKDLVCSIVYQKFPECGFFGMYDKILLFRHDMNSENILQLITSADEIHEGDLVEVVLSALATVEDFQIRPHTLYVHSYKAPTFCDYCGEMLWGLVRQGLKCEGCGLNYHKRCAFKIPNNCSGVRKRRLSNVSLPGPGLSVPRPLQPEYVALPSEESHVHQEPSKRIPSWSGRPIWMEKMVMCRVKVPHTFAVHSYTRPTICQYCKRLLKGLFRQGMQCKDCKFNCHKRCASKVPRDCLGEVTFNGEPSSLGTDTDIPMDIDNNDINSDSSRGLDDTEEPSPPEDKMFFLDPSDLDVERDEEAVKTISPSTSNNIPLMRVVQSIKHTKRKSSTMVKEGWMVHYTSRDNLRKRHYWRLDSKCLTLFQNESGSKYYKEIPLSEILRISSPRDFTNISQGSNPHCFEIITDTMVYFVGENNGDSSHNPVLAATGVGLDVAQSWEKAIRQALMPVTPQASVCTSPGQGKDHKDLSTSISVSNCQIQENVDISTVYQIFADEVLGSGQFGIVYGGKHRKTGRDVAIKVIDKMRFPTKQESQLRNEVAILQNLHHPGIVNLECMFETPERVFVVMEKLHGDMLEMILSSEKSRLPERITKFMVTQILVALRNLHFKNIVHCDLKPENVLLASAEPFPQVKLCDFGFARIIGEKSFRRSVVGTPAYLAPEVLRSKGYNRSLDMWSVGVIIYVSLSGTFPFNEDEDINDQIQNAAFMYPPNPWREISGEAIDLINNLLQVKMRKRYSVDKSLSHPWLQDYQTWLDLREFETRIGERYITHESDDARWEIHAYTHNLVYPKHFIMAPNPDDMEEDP

[6] = molecular target: ALK tyrosine kinase receptor (Homo sapiens, UniProt Q9UM73);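 further: ALK tested as one member of a kinase panel screen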
[7] = molecular target: Calcium/calmodulin-dependent protein kinase type II subunit alpha (Homo sapiens, UniProt Q9UQM7); test: Navigating the Kinome. Panel member name: CAMK2A
Chain of Calcium/calmodulin-dependent protein kinase type II subunit alpha (Q9UQM7 whole entry): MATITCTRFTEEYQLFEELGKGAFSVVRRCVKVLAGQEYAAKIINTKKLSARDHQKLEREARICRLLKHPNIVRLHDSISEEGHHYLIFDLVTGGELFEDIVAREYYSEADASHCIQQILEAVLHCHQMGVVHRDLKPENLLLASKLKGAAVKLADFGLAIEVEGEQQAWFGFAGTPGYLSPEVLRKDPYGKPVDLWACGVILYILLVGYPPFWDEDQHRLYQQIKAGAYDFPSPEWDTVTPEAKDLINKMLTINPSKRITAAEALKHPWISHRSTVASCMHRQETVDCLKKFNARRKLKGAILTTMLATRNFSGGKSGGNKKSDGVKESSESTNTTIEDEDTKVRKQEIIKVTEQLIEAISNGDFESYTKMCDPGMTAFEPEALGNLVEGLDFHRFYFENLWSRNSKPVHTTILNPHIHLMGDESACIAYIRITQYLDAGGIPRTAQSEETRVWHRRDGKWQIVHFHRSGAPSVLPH

Chain of Tyrosine-protein kinase JAK2 (O60674 whole entry): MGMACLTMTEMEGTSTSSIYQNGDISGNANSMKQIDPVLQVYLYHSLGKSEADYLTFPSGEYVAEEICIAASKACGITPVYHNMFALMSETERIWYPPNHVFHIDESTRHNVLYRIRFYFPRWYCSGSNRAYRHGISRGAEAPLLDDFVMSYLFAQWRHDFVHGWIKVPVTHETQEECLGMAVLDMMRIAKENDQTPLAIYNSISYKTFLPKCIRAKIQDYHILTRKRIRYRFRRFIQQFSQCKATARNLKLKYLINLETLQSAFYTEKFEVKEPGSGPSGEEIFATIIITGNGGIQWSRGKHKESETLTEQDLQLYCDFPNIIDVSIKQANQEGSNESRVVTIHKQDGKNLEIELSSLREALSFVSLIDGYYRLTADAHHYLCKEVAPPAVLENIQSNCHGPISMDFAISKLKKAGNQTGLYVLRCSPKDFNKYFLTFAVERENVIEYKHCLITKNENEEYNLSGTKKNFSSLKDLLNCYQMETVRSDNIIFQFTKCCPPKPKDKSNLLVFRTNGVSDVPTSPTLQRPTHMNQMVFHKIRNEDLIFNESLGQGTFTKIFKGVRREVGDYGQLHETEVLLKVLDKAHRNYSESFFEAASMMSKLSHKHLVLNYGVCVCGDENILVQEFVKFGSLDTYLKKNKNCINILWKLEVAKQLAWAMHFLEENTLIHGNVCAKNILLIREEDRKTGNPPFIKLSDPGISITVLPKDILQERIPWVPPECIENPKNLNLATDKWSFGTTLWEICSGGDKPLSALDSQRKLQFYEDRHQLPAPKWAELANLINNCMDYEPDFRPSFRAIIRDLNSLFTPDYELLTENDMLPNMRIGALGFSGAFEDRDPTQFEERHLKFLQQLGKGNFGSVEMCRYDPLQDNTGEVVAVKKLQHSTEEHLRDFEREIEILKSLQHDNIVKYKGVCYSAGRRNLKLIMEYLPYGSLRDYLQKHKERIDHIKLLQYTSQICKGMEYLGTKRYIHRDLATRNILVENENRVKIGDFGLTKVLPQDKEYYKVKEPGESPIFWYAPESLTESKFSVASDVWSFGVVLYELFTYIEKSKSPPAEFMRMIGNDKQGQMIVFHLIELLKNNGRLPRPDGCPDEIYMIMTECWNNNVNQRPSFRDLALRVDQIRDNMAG
Chain of ALK tyrosine kinase receptor (Q9UM73 whole entry): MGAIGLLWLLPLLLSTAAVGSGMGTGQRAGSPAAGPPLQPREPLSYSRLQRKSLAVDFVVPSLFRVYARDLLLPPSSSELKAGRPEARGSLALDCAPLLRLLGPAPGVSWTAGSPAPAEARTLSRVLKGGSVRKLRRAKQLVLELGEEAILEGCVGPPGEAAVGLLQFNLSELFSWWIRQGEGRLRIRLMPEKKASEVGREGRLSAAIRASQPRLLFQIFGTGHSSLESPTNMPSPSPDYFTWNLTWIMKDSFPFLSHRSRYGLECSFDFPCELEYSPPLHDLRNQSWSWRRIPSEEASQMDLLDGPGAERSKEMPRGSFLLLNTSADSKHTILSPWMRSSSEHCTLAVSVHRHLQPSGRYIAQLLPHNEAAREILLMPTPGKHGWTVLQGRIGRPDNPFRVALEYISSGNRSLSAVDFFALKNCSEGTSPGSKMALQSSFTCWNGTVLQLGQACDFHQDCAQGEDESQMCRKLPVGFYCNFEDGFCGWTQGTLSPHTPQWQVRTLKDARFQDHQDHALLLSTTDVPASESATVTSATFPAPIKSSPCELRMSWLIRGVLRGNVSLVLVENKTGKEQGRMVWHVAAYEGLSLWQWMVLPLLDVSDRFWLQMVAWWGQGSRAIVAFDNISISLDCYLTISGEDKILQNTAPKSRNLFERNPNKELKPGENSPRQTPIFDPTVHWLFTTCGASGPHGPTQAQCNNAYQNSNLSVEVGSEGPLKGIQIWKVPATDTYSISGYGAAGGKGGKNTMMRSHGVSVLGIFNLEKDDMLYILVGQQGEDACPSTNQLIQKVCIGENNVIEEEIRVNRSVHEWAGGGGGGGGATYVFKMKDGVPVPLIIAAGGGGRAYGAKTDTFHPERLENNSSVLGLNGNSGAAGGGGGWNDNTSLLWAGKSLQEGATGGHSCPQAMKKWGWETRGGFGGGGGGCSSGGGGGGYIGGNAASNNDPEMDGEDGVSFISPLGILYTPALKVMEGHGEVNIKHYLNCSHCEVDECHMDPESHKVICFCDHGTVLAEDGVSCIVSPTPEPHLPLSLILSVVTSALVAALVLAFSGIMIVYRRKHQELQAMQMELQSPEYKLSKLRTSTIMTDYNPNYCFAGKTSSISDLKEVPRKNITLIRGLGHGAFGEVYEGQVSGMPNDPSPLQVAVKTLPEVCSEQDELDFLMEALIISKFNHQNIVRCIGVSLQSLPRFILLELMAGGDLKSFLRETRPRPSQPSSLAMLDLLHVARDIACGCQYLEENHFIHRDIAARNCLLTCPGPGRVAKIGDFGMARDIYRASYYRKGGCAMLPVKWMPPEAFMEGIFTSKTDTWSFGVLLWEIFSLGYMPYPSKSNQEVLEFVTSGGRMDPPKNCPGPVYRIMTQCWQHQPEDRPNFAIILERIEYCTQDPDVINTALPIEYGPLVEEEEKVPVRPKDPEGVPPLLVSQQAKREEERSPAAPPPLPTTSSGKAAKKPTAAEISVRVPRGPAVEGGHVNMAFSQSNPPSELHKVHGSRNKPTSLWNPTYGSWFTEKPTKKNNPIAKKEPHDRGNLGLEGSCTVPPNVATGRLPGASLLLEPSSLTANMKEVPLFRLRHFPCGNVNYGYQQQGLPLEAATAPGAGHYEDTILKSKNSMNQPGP
Chain of SRSF protein kinase 1 (Q96SB4 whole entry): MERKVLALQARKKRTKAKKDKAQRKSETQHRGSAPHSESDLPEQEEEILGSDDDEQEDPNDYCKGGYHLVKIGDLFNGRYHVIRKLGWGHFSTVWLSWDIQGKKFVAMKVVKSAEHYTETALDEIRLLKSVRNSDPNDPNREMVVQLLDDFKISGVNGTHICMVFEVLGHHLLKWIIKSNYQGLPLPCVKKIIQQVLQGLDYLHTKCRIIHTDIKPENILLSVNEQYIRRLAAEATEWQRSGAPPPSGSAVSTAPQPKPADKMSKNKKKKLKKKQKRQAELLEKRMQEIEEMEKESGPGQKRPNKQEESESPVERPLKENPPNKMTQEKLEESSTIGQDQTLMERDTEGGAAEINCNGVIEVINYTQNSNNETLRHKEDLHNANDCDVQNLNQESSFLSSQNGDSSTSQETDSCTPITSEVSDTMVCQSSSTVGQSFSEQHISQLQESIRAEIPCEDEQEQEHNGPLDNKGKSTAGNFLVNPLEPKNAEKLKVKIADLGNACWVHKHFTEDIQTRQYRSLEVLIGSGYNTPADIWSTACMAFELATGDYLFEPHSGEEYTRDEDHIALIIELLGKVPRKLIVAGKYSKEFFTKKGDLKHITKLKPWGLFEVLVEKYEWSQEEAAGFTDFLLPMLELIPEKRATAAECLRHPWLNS

SMILES	Ki [1]	Ki (SRSF protein kinase 1)	Ki [2]	Ki [3]	Ki [4]	Ki [5]	Ki [6]	Ki [7]
NC1CCC(Nc2nccc(-c3c[nH]c4ncccc34)n2)CC1 (centres undefined)	0.316 µM (active)	1 µM (active)	> 2 µM (inactive)	0.251 µM (active)	0.00316 µM (active)	0.00631 µM (active)	> 1.26 µM (inactive)	–
OCc1cc(-c2ccc3[nH]ncc3c2)on1	79.4 µM (active)	–	63.1 µM (active)	25.1 µM (active)	0.398 µM (active)	12.6 µM (active)	79.4 µM (active)	79.4 µM (active)
COC(C(=O)N1Cc2[nH]nc(NC(=O)c3ccc(N4CCN(C)CC4)cc3)c2C1)c1ccccc1 (centres undefined)	–	> 7.94 µM (inactive)	> 2.51 µM (inactive)	–	–	–	–	> 6.31 µM (inactive)
CC(C)(O)c1cn(-c2ccc3[nH]ncc3c2)nn1	79.4 µM (active)	–	25.1 µM (active)	31.6 µM (active)	5.01 µM (active)	50.1 µM (active)	79.4 µM (active)	63.1 µM (active)
